For series [1] the following is noted: concentrations as high as 10 mg/kg or greater i.p.; cited from earlier work.
For a further series, the system named is cathepsin D. The format is cell-based, mouse.
In a further series the test system is MonoMac-1 cells. Nature of the series: IL-8 assay in MonoMac-1 cells (ELISA). The following applies: securinine 25 μM vs carrier/buffer control. The format is cell-based, human. For orientation: ELISA stands for enzyme-linked immunosorbent assay.
In a further series the test system is C. burnetii. The following applies: 24 hours.
In the next series the test system is p38 map kinase. Nature of the series: p38 MAP kinase Western blot in Monomac-1 cells. The format is cell-based, human. The following applies: 50 μM securinine. A general note: Immunoblotting shows a protein as a band on a membrane.
Series [2] deals with Phase II C. burnetii. The format is cell-based. The following applies: 96 hours.
For series [3], the system named is C. burnetii (Phase II Nine Mile strain). The format is cell-based. The following applies: 96 hours.
The test system of series [4] is Phase II C. burnetii. The format is in vivo.
Another series relates to host macrophages. The following applies: 24 hours.
The next series concerns TLR-1 to 10. Description: TLR activation assay (THP1-Blue-CD14/SEAP). The format is cell-based. The following applies: securinine 50 or 25 μM, 24 hours.
The subject of series [5] is C. burnetii (Phase II Nine Mile strain). The format is cell-based. The following applies: 96 hours. This is another data set of the same source.
The subject of a further series is peritoneal cells. Description: Analysis of peritoneal cells after i.p. injection (FACS). The format is in vivo, Balb/c mice. The following applies: peritoneum, data not shown.

Values joined by “and” are separate entries in the source; they are usually repeats but may differ in a detail not shown here. Equal values may be shown once. Read-outs that look alike come from different tables or passages of the source.

`O=C1C=C2C=C[C@@H]3C[C@@]2(O1)[C@H]1CCCCN31` [securinine]: the toxicity result in series [1] is recorded as “without any obvious toxicity”. Moreover, the “cathepsin D expression in infected macrophages” value in the series with cathepsin D was “induced cathepsin D expression”. In addition, the IL-8 secretion entry in the series with MonoMac-1 cells was “potent inducer of IL-8 secretion”. For the same molecule, the “direct killing of C. burnetii” value in the series on C. burnetii was “Neither of the compounds, at concentrations that induced killing in vitro and in vivo, induced direct killing”. Further, the “p38Map kinase activity (phospho-p38)” value with p38 map kinase is “induces p38Map kinase activity”. Besides, in the series on Phase II C. burnetii [2], the “percent C. burnetii killing” value is listed as over 80%. In series [3], the C. burnetii killing entry is recorded as “induced killing of C. burnetii”. For the same molecule, in the series on Phase II C. burnetii [4] (96 hr), the “C. burnetii burden (viable bacterial counts)” value is “significantly (P value <0.05) lower” and the spleen weights entry is listed as “significantly (P value <0.05) lower”. Also, in the series on Phase II C. burnetii [4] (in vivo, ip), the “reduction in C. burnetii, PCR assay for bacterial DNA” value stood at 10 fold and the “reduction in C. burnetii, viability assay” value is listed as 10 fold. Moreover, the “direct killing of host cells” value in the series with host macrophages was “Neither of the compounds, at concentrations that induced killing in vitro and in vivo, induced direct killing”. Further, in the series with TLR-1 to 10, the “TLR-1 to 10 signaling (SEAP release)” value is listed as “not detected”. In addition, the C. burnetii killing result in series [5] is reported as “induced killing of C. burnetii”.
Consider Pam3CGDPKHPKSF [FSL-1], for which the “neutrophil and macrophage activation: CD11b and Ly6C expression” value in the series on peritoneal cells was “increased”. Besides, in the series with C. burnetii, the “direct killing of C. burnetii” value was “Neither of the compounds, at concentrations that induced killing in vitro and in vivo, induced direct killing”. Also, in the series with Phase II C. burnetii [4] (in vivo), the “bacterial burden by PCR, lower than buffer alone” value is over 10 fold; the “bacterial counts by PCR” value is listed as “reduced bacterial counts”; the “efficiency in inducing enhanced C. burnetii clearance, share of animals” value is 61% and 100%; the “mice showing a reduction of C. burnetii” value amounted to 11 mice. In addition, in the series on Phase II C. burnetii [4] (in vivo), the “mice with lower spleen weight and bacterial burden” value is recorded as 5 out of 5; the spleen weight entry is on record as “significantly lower”; the “splenomegaly (spleen weight)” value was “reduced the splenomegaly”; the “total C. burnetii DNA from spleen and liver” value is recorded as “lower”. For the same molecule, in the series on Phase II C. burnetii [4] (in vivo), the “viable bacterial counts in the spleen (bacLight FACS assay)” value is given as “enhanced clearance of C. burnetii”. Also, the “spleen C. burnetii numbers (PCR quantification of bacterial DNA)” value with Phase II C. burnetii [4] (in vivo, ip) was “reduced”. The “direct killing of host cells” value in the series on host macrophages was “Neither of the compounds, at concentrations that induced killing in vitro and in vivo, induced direct killing”. Also, the “C. burnetii content of infected cells” value in [5] was “less C. burnetii”.
For lipopolysaccharide [LPS], the “neutrophil and macrophage activation: CD11b and Ly6C expression” value in the series with peritoneal cells is listed as “increased”. In addition, the “benefit on C. burnetii infection in vivo” value in the series on Phase II C. burnetii [4] (in vivo) is reported as “No benefit”. Moreover, the “spleen C. burnetii numbers (PCR quantification of bacterial DNA)” value in the series with Phase II C. burnetii [4] (in vivo, ip) is “did not have an effect”. Besides, the “C. burnetii content of infected cells” value in series [5] is recorded as “less C. burnetii”.

These data come from patent US20130196900A1, “ENHANCEMENT OF INNATE RESISTANCE TO INFECTION” (priority 2007, published 2013).
